We go through 32 compounds from article PMC8119466, “A screen of FDA-approved drugs identifies inhibitors of protein tyrosine phosphatase 4A3 (PTP4A3 or PRL-3)” (Scientific Reports, 2021).

Where a name gives a salt, the structure may show the parent alone. Read-outs that look alike come from different tables or passages of the source.

Format in all cases: biochemical
One assay has as its target T1, recombinant PRL-3 (Homo sapiens, UniProt O75365).
T1 construct: 6xHis (N, cleaved yes); made in house; host or cells: E. coli One Shot BL21 Star
Briefly: In vitro phosphatase assay (DiFMUP hydrolysis), PRL-3. Further: test concentration or dose not given here.

The target in a further assay is T2, recombinant PRL-1 (Homo sapiens, UniProt Q93096).
T2 construct: 6xHis (N, cleaved yes); made in house; host or cells: E. coli One Shot BL21 Star
T2 sequence (Q93096 1-173): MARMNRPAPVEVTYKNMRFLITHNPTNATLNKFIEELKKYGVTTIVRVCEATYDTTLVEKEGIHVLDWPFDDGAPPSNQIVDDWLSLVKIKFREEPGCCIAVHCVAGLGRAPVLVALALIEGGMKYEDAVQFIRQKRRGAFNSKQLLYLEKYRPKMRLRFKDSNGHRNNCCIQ
Briefly: In vitro phosphatase assay (DiFMUP hydrolysis), PRL-1. Further: test concentration or dose not given here.

Another assay has as its target T3, recombinant PRL-2 (Homo sapiens, UniProt Q12974).
T3 construct: 6xHis (N, cleaved yes); made in house; host or cells: E. coli One Shot BL21 Star
T3 sequence (Q12974 1-167): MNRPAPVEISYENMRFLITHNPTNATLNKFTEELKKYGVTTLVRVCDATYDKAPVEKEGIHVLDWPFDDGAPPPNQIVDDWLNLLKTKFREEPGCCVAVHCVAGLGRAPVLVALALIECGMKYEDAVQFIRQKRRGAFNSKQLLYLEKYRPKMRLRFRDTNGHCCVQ
Briefly: In vitro phosphatase assay (DiFMUP hydrolysis), PRL-2.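 Further: PRL-2 activity read as DiFMUP hydrolysis after 20 min at room temperature with drug, enzyme first pre-reduced at 4 °C for 20 min.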

The mark [1] stands for this setting: FDA-approved drug screen, compared to DMSO.

T1 sequence (O75365 whole entry): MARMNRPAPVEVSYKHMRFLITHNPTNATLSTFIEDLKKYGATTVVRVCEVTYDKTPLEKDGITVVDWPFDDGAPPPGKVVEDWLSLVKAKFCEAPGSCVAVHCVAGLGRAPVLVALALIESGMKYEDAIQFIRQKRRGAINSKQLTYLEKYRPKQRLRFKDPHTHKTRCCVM

As for `C=C[C@]1(C)C[C@@H](OC(=O)CS[C@@H]2C[C@H]3CC[C@@H](C2)N3C)[C@]2(C)[C@H](C)CC[C@]3(CCC(=O)[C@H]32)[C@@H](C)[C@@H]1O` [Retapamulin], the “% Phosphatase Activity (compared to DMSO) PRL-3” value on recombinant PRL-3 (setting [1]) is on record as 67%. Further, the “% Phosphatase Activity (compared to DMSO) PRL-1” value at recombinant PRL-1 (setting [1]) came to 85%. The “% Phosphatase Activity (compared to DMSO) PRL-2” value at recombinant PRL-2 (setting [1]) was 123%.
As to `NC(=O)c1ncn([C@@H]2O[C@H](CO)[C@@H](O)[C@H]2O)n1` [Ribavirin], the “% Phosphatase Activity (compared to DMSO) PRL-3” value on recombinant PRL-3 (setting [1]) came out at 83%. Further, on recombinant PRL-1 (setting [1]), the “% Phosphatase Activity (compared to DMSO) PRL-1” value stood at 105%. Further, the “% Phosphatase Activity (compared to DMSO) PRL-2” value at recombinant PRL-2 (setting [1]) stood at 108%.
As to `CO[C@H]1/C=C/O[C@@]2(C)Oc3c(C)c(O)c4c(c3C2=O)C2=NC3(CCN(CC(C)C)CC3)NC2=C(NC(=O)/C(C)=C\C=C\[C@H](C)[C@H](O)[C@@H](C)[C@@H](O)[C@@H](C)[C@H](OC(C)=O)[C@@H]1C)C4=O` [Rifabutin], the “% Phosphatase Activity (compared to DMSO) PRL-3” value on recombinant PRL-3 (setting [1]) is recorded as 72%. At recombinant PRL-1 (setting [1]), the “% Phosphatase Activity (compared to DMSO) PRL-1” value is on record as 61%. The “% Phosphatase Activity (compared to DMSO) PRL-2” value on recombinant PRL-2 (setting [1]) came to 63%.
The corresponding values for `CO[C@H]1/C=C/O[C@@]2(C)Oc3c(C)c(O)c4c(O)c(c(/C=N/N5CCN(C)CC5)c(O)c4c3C2=O)NC(=O)/C(C)=C\C=C\[C@H](C)[C@H](O)[C@@H](C)[C@@H](O)[C@@H](C)[C@H](OC(C)=O)[C@@H]1C` [Rifampin] are 71%, 58% and 49%.
For the compound `CO[C@H]1/C=C/O[C@@]2(C)Oc3c(C)c(O)c4c(O)c(c(/C=N/N5CCN(C6CCCC6)CC5)c(O)c4c3C2=O)NC(=O)/C(C)=C\C=C\[C@H](C)[C@H](O)[C@@H](C)[C@@H](O)[C@@H](C)[C@H](OC(C)=O)[C@@H]1C` [Rifapentine], the “% Phosphatase Activity (compared to DMSO) PRL-3” value on recombinant PRL-3 (setting [1]) is on record as 74%. In addition, the “% Phosphatase Activity (compared to DMSO) PRL-1” value at recombinant PRL-1 (setting [1]) is 61%. Moreover, the “% Phosphatase Activity (compared to DMSO) PRL-2” value at recombinant PRL-2 (setting [1]) is recorded as 57%.
The like results for `CO[C@H]1/C=C/O[C@@]2(C)Oc3c(C)c(O)c4c(O)c(c5c(nc6cc(C)ccn65)c4c3C2=O)NC(=O)/C(C)=C\C=C\[C@H](C)[C@H](O)[C@@H](C)[C@@H](O)[C@@H](C)[C@H](OC(C)=O)[C@@H]1C` [Rifaximin] were, in that order, 79%, 64% and 60%.
The like results for `COc1cc(OC)c(/C=C/S(=O)(=O)Cc2ccc(OC)c(NCC(=O)O)c2)c(OC)c1` [Rigosertib (ON-01910)] were, in that order, 78%, 95% and 86%.
The corresponding values for `Cc1cc(/C=C/C#N)cc(C)c1Nc1ccnc(Nc2ccc(C#N)cc2)n1` [Rilpivirine] are 136%, 139% and 116%.
Take `CC(N)C12CC3CC(CC(C3)C1)C2` (stereo not drawn) [Rimantadine]: the “% Phosphatase Activity (compared to DMSO) PRL-3” value at recombinant PRL-3 (setting [1]) was 80%. At recombinant PRL-1 (setting [1]), the “% Phosphatase Activity (compared to DMSO) PRL-1” value came to 91%. Moreover, the “% Phosphatase Activity (compared to DMSO) PRL-2” value on recombinant PRL-2 (setting [1]) amounted to 106%.
The corresponding values for `Cc1c(C(=O)NN2CCCCC2)nn(-c2ccc(Cl)cc2Cl)c1-c1ccc(Cl)cc1` [Rimonabant] are 98%, 103% and 116%.
Take `COC(=O)N(C)c1c(N)nc(-c2nn(Cc3ccccc3F)c3ncccc23)nc1N` [Riociguat (BAY 63-2521)]: the “% Phosphatase Activity (compared to DMSO) PRL-3” value on recombinant PRL-3 (setting [1]) amounted to 90%. Besides, on recombinant PRL-1 (setting [1]), the “% Phosphatase Activity (compared to DMSO) PRL-1” value is reported as 99%. For the same compound, at recombinant PRL-2 (setting [1]), the “% Phosphatase Activity (compared to DMSO) PRL-2” value is 82%.
In the case of `C[C@H]1CNCCCN1S(=O)(=O)c1cccc2cncc(F)c12` [Ripasudil (K-115)], the “% Phosphatase Activity (compared to DMSO) PRL-3” value on recombinant PRL-3 (setting [1]) was 96%. Moreover, at recombinant PRL-1 (setting [1]), the “% Phosphatase Activity (compared to DMSO) PRL-1” value is 95%. Besides, the “% Phosphatase Activity (compared to DMSO) PRL-2” value on recombinant PRL-2 (setting [1]) was 94%.
Consider `Cc1nc2n(c(=O)c1CCN1CCC(c3noc4cc(F)ccc34)CC1)CCCC2` [Risperidone], for which the “% Phosphatase Activity (compared to DMSO) PRL-3” value at recombinant PRL-3 (setting [1]) stood at 88%. At recombinant PRL-1 (setting [1]), the “% Phosphatase Activity (compared to DMSO) PRL-1” value amounted to 104%. Further, the “% Phosphatase Activity (compared to DMSO) PRL-2” value at recombinant PRL-2 (setting [1]) is recorded as 94%.
As for `CC(NCCc1ccc(O)cc1)C(O)c1ccc(O)cc1` (stereo not drawn) [Ritodrine HCl], the “% Phosphatase Activity (compared to DMSO) PRL-3” value at recombinant PRL-3 (setting [1]) was determined as 83%. For the same compound, the “% Phosphatase Activity (compared to DMSO) PRL-1” value on recombinant PRL-1 (setting [1]) was determined as 113%. Moreover, the “% Phosphatase Activity (compared to DMSO) PRL-2” value on recombinant PRL-2 (setting [1]) was 98%.
The corresponding values for `CC(C)c1nc(CN(C)C(=O)N[C@H](C(=O)N[C@@H](Cc2ccccc2)C[C@H](O)[C@H](Cc2ccccc2)NC(=O)OCc2cncs2)C(C)C)cs1` [Ritonavir] are 90%, 103% and 108%.
`O=C(NC[C@H]1CN(c2ccc(N3CCOCC3=O)cc2)C(=O)O1)c1ccc(Cl)s1` [Rivaroxaban]: the “% Phosphatase Activity (compared to DMSO) PRL-3” value at recombinant PRL-3 (setting [1]) was 92%. Moreover, on recombinant PRL-1 (setting [1]), the “% Phosphatase Activity (compared to DMSO) PRL-1” value came to 98%. Besides, the “% Phosphatase Activity (compared to DMSO) PRL-2” value on recombinant PRL-2 (setting [1]) is recorded as 106%.
The like results for `CCN(C)C(=O)Oc1cccc([C@H](C)N(C)C)c1` [Rivastigmine Tartrate] were, in that order, 79%, 95% and 107%.
The corresponding values for `CCN(C)C(=O)Oc1cccc([C@H](C)N(C)C)c1` [Rivastigmine] are 92%, 98% and 94%.
Regarding `CN(C)CCc1c[nH]c2ccc(Cn3cncn3)cc12` [Rizatriptan Benzoate], the “% Phosphatase Activity (compared to DMSO) PRL-3” value on recombinant PRL-3 (setting [1]) turned out to be 90%. Also, the “% Phosphatase Activity (compared to DMSO) PRL-1” value on recombinant PRL-1 (setting [1]) is 98%. Moreover, the “% Phosphatase Activity (compared to DMSO) PRL-2” value on recombinant PRL-2 (setting [1]) turned out to be 103%.
The corresponding values for `O=C(CCCCCCNC(=O)c1cnc(N(c2ccccc2)c2ccccc2)nc1)NO` [Rocilinostat (ACY-1215)] are 97%, 102% and 98%.
The like results for `C=CC[N+]1([C@H]2C[C@H]3[C@@H]4CC[C@H]5C[C@H](O)[C@@H](N6CCOCC6)C[C@]5(C)[C@H]4CC[C@]3(C)[C@H]2OC(C)=O)CCCC1` [Rocuronium Bromide] were, in that order, 90%, 100% and 106%.
Consider `CS(=O)(=O)c1ccc(C2=C(c3ccccc3)C(=O)OC2)cc1` [Rofecoxib], for which the “% Phosphatase Activity (compared to DMSO) PRL-3” value on recombinant PRL-3 (setting [1]) was found to be 92%. In addition, the “% Phosphatase Activity (compared to DMSO) PRL-1” value at recombinant PRL-1 (setting [1]) is listed as 110%. Also, the “% Phosphatase Activity (compared to DMSO) PRL-2” value on recombinant PRL-2 (setting [1]) is recorded as 120%.
The like results for `O=C(Nc1c(Cl)cncc1Cl)c1ccc(OC(F)F)c(OCC2CC2)c1` [Roflumilast] were, in that order, 87%, 107% and 101%.
The corresponding values for `COc1ccc(C2CNC(=O)C2)cc1OC1CCCC1` (stereo not drawn) [Rolipram] are 77%, 99% and 104%.
The like results for `Cn1c([N+](=O)[O-])cnc1COC(N)=O` [Ronidazole] were, in that order, 62%, 86% and 95%.
`CCCN(CCC)CCc1cccc2c1CC(=O)N2` [Ropinirole HCl]: the “% Phosphatase Activity (compared to DMSO) PRL-3” value at recombinant PRL-3 (setting [1]) was 78%. For the same compound, on recombinant PRL-1 (setting [1]), the “% Phosphatase Activity (compared to DMSO) PRL-1” value was 103%. Besides, the “% Phosphatase Activity (compared to DMSO) PRL-2” value on recombinant PRL-2 (setting [1]) is listed as 122%.
Consider `CCCN1CCCC[C@H]1C(=O)Nc1c(C)cccc1C` [Ropivacaine HCl], for which the “% Phosphatase Activity (compared to DMSO) PRL-3” value on recombinant PRL-3 (setting [1]) is listed as 80%. For the same compound, the “% Phosphatase Activity (compared to DMSO) PRL-1” value at recombinant PRL-1 (setting [1]) turned out to be 100%. In addition, the “% Phosphatase Activity (compared to DMSO) PRL-2” value on recombinant PRL-2 (setting [1]) is 110%.
As for `CC[C@H](CO)Nc1nc(NCc2ccccc2)c2ncn(C(C)C)c2n1` [Roscovitine (Seliciclib,CYC202)], the “% Phosphatase Activity (compared to DMSO) PRL-3” value at recombinant PRL-3 came to 96%. Further, the “% Phosphatase Activity (compared to DMSO) PRL-1” value on recombinant PRL-1 is listed as 108%. Further, on recombinant PRL-2, the “% Phosphatase Activity (compared to DMSO) PRL-2” value was 111%.
On to `CN(CCOc1ccc(CC2SC(=O)NC2=O)cc1)c1ccccn1.Cl` (stereo not drawn) [Rosiglitazone HCl], for which the “% Phosphatase Activity (compared to DMSO) PRL-3” value on recombinant PRL-3 (setting [1]) worked out at 79%. For the same compound, the “% Phosphatase Activity (compared to DMSO) PRL-1” value on recombinant PRL-1 (setting [1]) is 103%. In addition, the “% Phosphatase Activity (compared to DMSO) PRL-2” value on recombinant PRL-2 (setting [1]) amounted to 116%.
The like results for `CN(CCOc1ccc(CC2SC(=O)NC2=O)cc1)c1ccccn1` (stereo not drawn) [Rosiglitazone maleate] were, in that order, 87%, 104% and 113%.
The corresponding values for `CN(CCOc1ccc(CC2SC(=O)NC2=O)cc1)c1ccccn1` (stereo not drawn) [Rosiglitazone] are 79%, 90% and 111%.
The corresponding values for `CC(C)c1nc(N(C)S(C)(=O)=O)nc(-c2ccc(F)cc2)c1/C=C/[C@@H](O)C[C@@H](O)CC(=O)O` [Rosuvastatin Calcium] are 83%, 107% and 99%.
